Laboratory results reported in patent US7517902B2, “Substituted indazoles, compositions containing the same, and the preparation and use thereof” (Aventis Pharma S.A., priority 2004, dated 2009).
Structures can show the parent of a compound that is named as a salt.

How the values were obtained:
Type in all cases: biochemical
human Tie2 = target: T1, human Tie2 (Homo sapiens, UniProt Q02763); experiment: Tie2 assay of PLC phosphorylation (FlashPlate); conditions: read-out: IC 50 TIE2
T1 construct: amino acids of the intracellular domain 776-1124; made in house
T1 sequence (Q02763 776-1124): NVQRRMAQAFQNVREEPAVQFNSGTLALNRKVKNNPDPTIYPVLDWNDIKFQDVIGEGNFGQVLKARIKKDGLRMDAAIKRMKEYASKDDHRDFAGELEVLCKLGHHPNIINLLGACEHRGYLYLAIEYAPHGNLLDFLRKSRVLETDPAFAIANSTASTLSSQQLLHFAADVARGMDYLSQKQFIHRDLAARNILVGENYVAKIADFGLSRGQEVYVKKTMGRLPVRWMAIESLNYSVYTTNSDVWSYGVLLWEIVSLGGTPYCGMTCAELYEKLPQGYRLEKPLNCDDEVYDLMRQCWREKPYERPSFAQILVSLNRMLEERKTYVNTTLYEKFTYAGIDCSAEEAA
Method: The coding sequence of human Tie2, corresponding to the amino acids of the intracellular domain 776-1124, was generated by PCR, using the cDNA isolated from human placenta as a model. This sequence was introduced into a baculovirus expression vector pFastBacGT in the form of a GST fusion protein.
The inhibitory effect of the molecules is determined in an assay of PLC phosphorylation by Tie2 in the presence of GST-Tie2 purified to approximately 80% homogeneity. The substrate is composed of the SH2-SH3 fragments of PLC expressed in the form of a GST fusion protein.
The kinase activity of Tie2 is measured in a 20 mM MOPS buffer, pH 7.2, containing 10 mM MgCl2, 10 mM MnCl2, 1 mM DTT, 10 mM of glycerol-phosphate. In a 96-well FlashPlate plate, kept on ice, a reaction mixture is deposited which is composed of 70 μl of kinase buffer containing 100 ng of GST-Tie2 enzyme per well. Subsequently 10 μl of the test molecule diluted to a concentration of 10% maximum in DMvSO are added. For a given concentration, each measurement is carried out in quadruplicate. The reaction is initiated by adding 20 μl of solution containing 2 μg of GST-PLC, 2 μM of cold ATP and 1 μCi of ^33P[ATP]. After 1 hour of incubation at 37° C., the reaction is terminated by adding 1 volume (100 μl) of 200 mM EDTA. Following removal of the incubation buffer, the wells are washed three times with 300 μl of PBS. The radioactivity is measured on a Wallac MicroBeta 1450.
The inhibition of Tie2 activity is calculated and expressed as a percentage inhibition relative to the control activity determined in the absence of compound.

Aurora2 = target: T2, Aurora2 (Homo sapiens, UniProt O14965); experiment: Aurora2 enzyme assay, NuMA substrate phosphorylation (Flashplate); conditions: read-out: IC 50 Aurora2
T2 construct: Aurora 2: whole recombinant protein comprising an N-terminal histidine tail; His tag (histidine tail) (N); made in house; host or cells: E. coli
T2 sequence (O14965 1-403): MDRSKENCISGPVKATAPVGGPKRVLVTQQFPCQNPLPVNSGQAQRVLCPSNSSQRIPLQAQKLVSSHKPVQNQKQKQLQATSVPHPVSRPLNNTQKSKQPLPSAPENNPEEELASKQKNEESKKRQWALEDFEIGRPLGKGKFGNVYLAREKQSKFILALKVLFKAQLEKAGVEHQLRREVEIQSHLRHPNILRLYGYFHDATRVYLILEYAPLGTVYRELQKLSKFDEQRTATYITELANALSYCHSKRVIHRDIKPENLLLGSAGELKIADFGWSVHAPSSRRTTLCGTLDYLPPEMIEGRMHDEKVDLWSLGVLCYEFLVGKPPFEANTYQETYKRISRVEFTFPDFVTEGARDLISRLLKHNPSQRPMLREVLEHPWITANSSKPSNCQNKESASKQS
Method: The inhibitory effect of compounds with respect to the kinases Aurora1 and Aurora2 is determined by an enzyme assay employing radioactivity detection.
The kinase activity of Aurora 1 and Aurora 2 is evaluated by the phosphorylation of the substrate Numa-histidine in the presence of radiolabeled ATP ([^33P]ATP), using 96-well Flashplate plates in which nickel chelate is fixed to the surface of the microplate. The amount of ^33P phosphate incorporated in the NuMA substrate is proportional to the activity of the enzyme Aurora1 or Aurora2.
The proteins are produced in the protein production laboratory of the SanofiAventis group.
Aurora 2: whole recombinant protein comprising an N-terminal histidine tail, expressed in E. coli and purified to more than 82%.
NuMA (nuclear protein that associates with the mitotic apparatus) fragment of 424 amino acids, expressed in E. coli, whose N-terminal end has been labeled with histidine and used as a substrate for the two Aurora enzymes.
The microplates used are 96-well Flash-Plate plates with nickel chelate (Perkin Elmer, model SMP107).
The products for evaluation are incubated in a reaction volume of 100 μL per well in the presence of 10 nM of Aurora 1 or Aurora 2, 500 nM of NuMA substrate in a buffer composed of 50 mM of Tris/HCl (pH 7.5), 50 mM NaCl, 5 mM MgCl2 (Aurora-B) or 10 mM MgCl2 (Aurora-A) and 1 mM of DTT, at 37° C.
In each well, 80 μL of the enzyme/substrate incubation buffer are distributed, followed by 10 μL of the product to be evaluated, in variable concentrations. The reaction is initiated by adding 1 μM of final ATP containing 0.2 μCi of [^33P]ATP (10 μL). After 30 minutes of incubation, the reaction is terminated by simply removing the reaction buffer and each well is washed twice with 300 μl of the Tris/HCl buffer. The radioactivity is then measured in each well by means of a scintillation apparatus, Packard, Top count model.
The control enzyme activity of Aurora is expressed by the number of counts per minute obtained within 30 minutes, after deduction of the background noise (reaction mixture not containing the enzyme). The evaluation of the various test products is expressed in percentage inhibition of the Aurora activity relative to the control.

human KDR enzyme = target: T3, human KDR enzyme (Homo sapiens, UniProt P35968); experiment: KDR substrate phosphorylation assay (scintillation, 96-well plate)
T3 construct: The cytoplasmic domain of the human KDR enzyme was cloned in the form of a GST fusion; GST; made in house; host or cells: SF21 insect cells (baculovirus, pFastBac)
T3 sequence (P35968 786-1356 limits assumed): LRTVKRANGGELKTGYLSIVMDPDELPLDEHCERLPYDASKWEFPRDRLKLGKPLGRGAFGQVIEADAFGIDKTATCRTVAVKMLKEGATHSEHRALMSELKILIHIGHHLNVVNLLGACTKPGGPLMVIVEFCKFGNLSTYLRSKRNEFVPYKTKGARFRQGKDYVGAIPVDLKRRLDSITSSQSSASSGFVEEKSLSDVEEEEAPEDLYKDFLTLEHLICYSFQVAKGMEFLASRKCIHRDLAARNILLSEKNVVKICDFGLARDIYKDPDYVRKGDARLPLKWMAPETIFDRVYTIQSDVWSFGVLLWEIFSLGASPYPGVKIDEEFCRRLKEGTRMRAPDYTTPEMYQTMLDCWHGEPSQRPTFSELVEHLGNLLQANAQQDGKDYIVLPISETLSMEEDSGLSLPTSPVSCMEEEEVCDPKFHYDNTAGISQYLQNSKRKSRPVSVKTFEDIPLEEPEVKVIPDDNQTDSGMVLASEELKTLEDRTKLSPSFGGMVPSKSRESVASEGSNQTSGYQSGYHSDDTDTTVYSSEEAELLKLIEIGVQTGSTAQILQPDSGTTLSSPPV
Method: The inhibitory effect of the compounds is determined in an assay of substrate phosphorylation by the KDR enzyme in vitro using a scintillation technique (96-well plate, NEN).
The cytoplasmic domain of the human KDR enzyme was cloned in the form of a GST fusion into the baculovirus expression vector pFastBac. The protein was expressed in SF21 cells and purified to approximately 60% homogeneity.
The KDR kinase activity is measured in 20 mM MOPS, 10 mM MgCl2, 10 mM MnCl2, 1 mM DTT, 2.5 mM EGTA, 10 mM β-glycerophosphate, pH=7.2, in the presence of 10 mM MgCl2, 100 μM Na3VO4, 1 mM NaF. 10 μl of the compound are added to 70 μl of kinase buffer, containing 100 ng of KDR enzyme at 4° C. The reaction is triggered by adding 20 μl of solution containing 2 μg of substrate (SH2-SH3 fragment of PLCγ expressed in the form of a GST fusion protein), 2 μCi γ^33P[ATP] and 2 μM cold ATP. After 1 hour of incubation at 37° C., the reaction is stopped by adding 1 volume (100 μl) of 200 mM EDTA. The incubation buffer is withdrawn and the wells are washed three times with 300 μl of PBS. The radioactivity is measured in each well using a Top Count NXT radioactivity counter (Packard).
The background noise is determined by measuring the radioactivity in four different wells containing the radioactive ATP and the substrate alone.
A control for total activity is measured in four different wells containing all of the reagents (γ^33P-[ATP], KDR and PLCγ substrate), but in the absence of compound.
The inhibition of KDR activity with the compound of the invention is expressed in percentage inhibition of the control activity determined in the absence of compound.
The compound SU5614 (Calbiochem) (1 μM) is included in each plate as an inhibition control.

IC50 (human Tie2) [nM] | IC50 (Aurora2) [nM] | IC50 (human KDR enzyme) [nM] | Compound
9 | 36 | 8 | O=C(Nc1ccc(-c2ccc3c(NC(=O)c4ccsc4)n[nH]c3c2F)cc1)Nc1cc(C(F)(F)F)ccc1F [Example 6, 1-(4-{7-Fluoro-3-[(thiophen-3-yl)carbonylamino]-1H-indazol-6-yl}phenyl)-3-(2-fluoro-5-trifluoromethylphenyl)urea]
20 | 28 | 40 | O=C(Nc1ccc(-c2ccc3c(NC(=O)c4ccsc4)n[nH]c3c2F)cc1)Nc1cccc(C(F)(F)F)c1 [Example 15, 1-(4-{7-Fluoro-3-[(thiophen-3-yl)carbonylamino]-1H-indazol-6-yl}phenyl)-3-(5-trifluoromethylphenyl)urea]
799 | 465 | 164 | Nc1ccc(-c2ccc3c(NC(=O)c4ccsc4)n[nH]c3c2F)cc1 [Example 4, 6-(4-Aminophenyl)-7-fluoro-3-[(thiophen-3-yl)carbonylamino]-1H-indazole hydrochloride]
231 | 92 | 329 | Nc1n[nH]c2c(F)c(-c3ccc(NC(=O)Nc4cccc(C(F)(F)F)c4)cc3)ccc12 [Example 19, 1-[4-(3-Amino-7-fluoro-1H-indazol-6-yl)phenyl]-3-(3-trifluoromethylphenyl)urea]
11 | 185 | 37 | O=C(Nc1ccc(-c2ccc3c(NC(=O)c4ccsc4)n[nH]c3c2F)cc1F)Nc1cc(C(F)(F)F)ccc1F [Example 11, 1-(4-{7-Fluoro-3-[(thiophen-3-yl)carbonylamino]-1H-indazol-6-yl}-2-fluorophenyl)-3-(2-fluoro-5-trifluoromethylphenyl)urea]
1780 | 113 | 33 | Nc1n[nH]c2cc(-c3ccc(NC(=O)Nc4cc(C(F)(F)F)ccc4F)cc3)ccc12 [Example 1, 1-[4-(3-Amino-1H-indazol-6-yl)phenyl]-3-(2-fluoro-5-trifluoromethylphenyl)urea hydrochloride]
17 | 94 | 11 | Cc1ccc(-n2nc(C(C)(C)C)cc2NC(=O)Nc2ccc(-c3ccc4c(N)n[nH]c4c3F)cc2)cc1 [Example 25, 1-[4-(3-Amino-7-fluoro-1H-indazol-6-yl)phenyl]-3-(5-tert-butyl-2-p-tolyl-2H-pyrazol-3-yl)urea]
